The results in this text go back to patent publication US9314453B2, “Tetrahydropyridoethers for treatment of AMD” (KATAIRO GmbH, priority 2008, dated 2016).

The subject of data set [1] is Retinal pigment epithelium (RPE) cells from human donor eyes. Description: Lipofuscin content and pigmentation in cultured RPE cells from human donor eyes (digital image analysis). The format is cell-based. Conditions: for Lipofuscin and pigment content in cultured RPE cells: 50 μg/ml or 0.25 mM, permanent exposure, versus control; for Lipofuscin and melanin in cultured human RPE cells: after 26 days of treatment (FIG. 18). The protocol:
Retinal pigment epithelium (RPE) cells from human donor eyes were cultured and exposed permanently to either vehicle solution, solution of Soraprazan or solution of 7R,8R,9R)-2,3-Dimethyl-7-ethoxy-8-hydroxy-9-phenyl-7,8,9,10-tetrahydro-imidazo-[1,2-h][1,7]-naphthyridin (called substance 1) at a concentration of 50 μg/ml or 0.25 mM. At several time points, digital images were taken and analysed with respect to the portion of lipofuscin and pigmentation in general. As the results did strongly depend on the random choice of microscopic field and the variations of the data were very high, the values of four consecutive days of five independent experiments were averaged. The results for the lipofuscin content in the RPE cells are shown in the diagram (FIG. 18).
Retinal pigment epithelium (RPE) cells from human donor eyes were cultured and exposed permanently to either vehicle solution, solution of Soraprazan or solution of substance 1 (concentration 50 μg/ml or 0.25 mM). At several time points, digital images were taken and analysed with respect to the portion of lipofuscin and pigmentation in general.

Data set [2] concerns RPE cell cultures from human donor eyes. Description: Phagocytosis of fluorescent latex beads by RPE cell cultures. The format is cell-based. The procedure:
Then the treatment-dependent ability of the cells to phagocytose, which is a crucial function of the RPE, was checked. For this purpose, RPE cell cultures from human donor eyes were exposed to vehicle or substance 1. After three weeks, fluorescent latex beads were added to the cell cultures for four hours. The cells were then washed to remove non-phagocytosed beads and fixed. Fluorescent images of the cells were taken and analysed for the contents of lipofuscin and the number of phagocytosed beads. The results shown in FIG. 19 are presented as the relationship between lipofuscin content and phagocytosed bead number in both controls and substance-1-treated cells.

Data set [3] has as its system photoreceptors and post-receptoral systems. Kind of data set: Electroretinography (ERG) after intravitreal injection in Wistar rats. The format is in vivo. Conditions: for ERG a-wave and b-wave amplitudes after injection, compared with vehicle: intravitreal, 50 μg/ml or 0.25 mM in the vitreous, highest light intensity, initial decrease; for ERG a-wave and b-wave amplitudes, recovery: three weeks after the intravitreal injection. The procedure:
(§1) The effects of lipofuscin in vivo, i.e. in the living eye of experimental rats after an intravitreal injection of the compounds were investigated. Vehicle solution or solutions of either substance 1 or Soraprazan were injected intravitreally in half-year old Wistar rats. The final concentration in the vitreous was the same as in the cell cultures, i.e. 50 μg/ml or 0.25 mM. In order to avoid mutual interactions between the two eyes of an animal, both eyes of an animal were treated the same way, with three animals (i.e. six eyes) per group.
(§2) Two kinds of evaluation were performed in these animals—electroretinography (ERG) for functional testing, and counting of lipofuscin particles to check whether the administration of the compounds leads to a decrease of lipofuscin contents in the RPE.
Before the injection, electroretinograms were measured to obtain base line values. Additional ERG measurements were performed one, two and three weeks after the intravitreal injections. Some results are shown in the diagrams below.

Data set [4] relates to RPE. Kind of data set: Counting of fluorescent lipofuscin particles in RPE after intravitreal injection in Wistar rats. It counts as in vivo. Conditions: three weeks after one single intravitreal injection, 50 μg/ml or 0.25 mM in the vitreous. The protocol: as §1, §2
The eyes were isolated after three weeks, fixed in formalin and embedded in paraffin. Paraffin sections were made, and digital fluorescence images were evaluated. The number of fluorescent lipofuscin particles per 50 μm RPE layer length was counted. The results are shown in the diagram (FIG. 21).

Data set [5] relates to Heavily pigmented human donor RPE cells. Description: Electron microscopy / semithin sections of heavily pigmented human donor RPE cells, degradational clusters. The format is cell-based. To be noted: 28 days. The protocol:
Heavily pigmented human donor RPE cells (passage)) were treated with 50 μg/ml substance 1 or 30 μg/ml Soraprazan and cultured for 28 days. Cells without treatment were used as controls. Cells were fixed for electron microscopy in 2% glutaraldehyde and embedded in EPON. Semithin and ultrathin sections were cut.
In the semithin sections, the clusters could be observed as well. Here, the pigmented cells bearing one or more clusters were counted. Degradational clusters were detected in 90.5%+/−21.3 of cells treated with substance 1 and in 80.1%+/−22.6 of cells treated with Soraprazan, but only in 16.8%+/−21.6 of untreated cells (p<0.0001).

The subject of data set [6] is RPE cells. Kind of data set: 52-week oral study in the Cynomolgus monkey, conventional histopathology. The format is in vivo. The protocol: Soraprazan was administrated in oral application of 6, 12 and 24 mg/kg/day for 52 weeks in the Cynomolgus monkey.
Some monkeys from the control and the high-dose group were subjected to a recovery period of 3 months.
Two of these 3 monkeys had depigmentation of RPE cells although the photoreceptors facing the depigmented RPE stayed healthy. These RPE cells had released melanin as well as lipofuscin granules to secondary cells that had migrated between Bruch's membrane and the RPE cell layer or into the subretinal space.

The subject of data set [7] is retinal pigment epithelium. Description: Transmission electron microscopy of RPE and photoreceptors after 52 weeks oral treatment. It counts as in vivo, Cynomolgus monkey. The procedure: In the present example the effect of Soraprazan on pigmentation of the retinal pigment epithelium in the Cynomolgus monkey (4 years of age) after oral application of 24 mg/kg/day for 52 weeks is shown.
Right eyes from the following animals were subjected to transmission electron microscopy:
Right eyes were removed carefully. A circular slit was cut at the limbus in order to immerse the inner eye with the fixation fluid (5% Glutaraldehyd in […] Cacodylat buffer). From these eyes, specimens ([…] in diameter) from the macula and from the mid-area were cut out, were postfixed in OsO4, treated with uranylacetate, dehydrated and embedded in Epon resin.
Semithin sections (0.7 μm) were prepared from Epon resin blocks. They were stained with toluidin blue and evaluated under a light microscope. Subsequently, ultrathin sections (50 nm) were cut from Epon resin blocks, contrasted and evaluated in a transmission electron microscope.
The number of lipofuscin granules that were smaller than 0.4 μm in diameter was counted in the cytoplasm of ultrathin sections of RPE cells from untreated and treated monkeys. In addition the same counts were performed in macrophages located between RPE and Bruch's membrane of treated monkeys. The results were 4.9±0.6/50 μm^2, 0.6±0.2/50 μm^2; […]. Lipofuscin granules larger than 1 μm in diameter were absent in RPE cells of treated animals. In contrast many of them were present in RPE cells of untreated monkeys.

Data set [8] has as its system RPE cells. Description: Fluorescence microscopy of lipofuscin granules in RPE sections of treated monkeys. It counts as in vivo, Cynomolgus monkey. From the text: Section was illuminated under the fluorescence microscope with 360 nm wavelength light. Lipofuscin granules were detected by the emission of gold-yellow light with […] wavelength. […] Macrophages between the RPE and Bruch's membrane, however, contained many lipofuscin granules. The majority of these granules were smaller than those in RPE cells of untreated animals.

Regarding `CCO[C@@H]1c2ccn3c(C)c(C)nc3c2N[C@H](c2ccccc2)[C@H]1O` [substance 1], in data set [1], the “Lipofuscin and pigment content in cultured RPE cells” value is “even more clear and significant decrease”; the “Lipofuscin and melanin in cultured human RPE cells” value is “reduced”. In addition, in [2] (after three weeks exposure, versus control (FIG. 19)), the “Lipofuscin content of RPE cells” value is listed as “much more lipofuscin under control conditions than under the influence of substance 1”. The “Number of phagocytosed latex beads” value in [2] (three weeks exposure, beads for four hours, versus untreated cells (FIG. 19)) was “phagocytosed more beads than untreated cells”. In data set [3], the “ERG a-wave and b-wave amplitudes after injection, compared with vehicle” value is “decrease of the amplitudes is even more pronounced”; the “ERG a-wave and b-wave amplitudes, recovery” value is “recover almost completely”. Further, the “Number of fluorescent lipofuscin particles per 50 μm RPE layer length” value in data set [4] was 9.8±6.1 particles per 50 μm. Besides, the “Pigmented cells bearing degradational clusters” value in data set [5] (50 μg/ml) amounted to 90.5%+/−21.3.
With `COCCO[C@@H]1c2ccn3c(C)c(C)nc3c2N[C@H](c2ccccc2)[C@H]1O` [Soraprazan, (7R,8R,9R)-2,3-Dimethyl-8-hydroxy-7-(2-methoxyethoxy)-9-phenyl-7,8,9,10-tetrahydro-imidazo[1,2-h][1,7]naphthyridine], the Conventional histopathology result in data set [6] (oral 6 mg/kg/day for 52 weeks) is “no alterations”. Further, in [6] (oral 12 mg/kg/day for 52 weeks), the Conventional histopathology entry was “no alterations”. For the same molecule, in [6] (oral 24 mg/kg/day for 52 weeks), the “Monkeys showing migration of individual macrophages beneath the RPE and/or into the subretinal space” value is reported as “Three out of 12”. In addition, the “Morphological changes in the neuroretina at the ultrastructural level” value in [7] (24 mg/kg/day for 52 weeks) is “No morphological changes”. In [7] (oral 24 mg/kg/day, 52 weeks), the “Monkeys with loss of melanin and lipofuscin in RPE cells” value is 3 out of 7; the “Ultrastructural alterations in the retina compared to untreated monkeys” value is recorded as “could not be detected”. In addition, the “Lipofuscin granules larger than 1 μm in diameter in RPE cells” value in [7] (treated animals) is given as “absent”. Further, in [7] (ultrathin sections, treated monkeys), the “Number of lipofuscin granules smaller than 0.4 μm in diameter in the cytoplasm of RPE cells” value is 0.6±0.2 /50 μm^2. Besides, the “Lipofuscin granules in depigmented RPE cells (fluorescence, 360 nm illumination)” value in data set [8] was “completely or almost completely absent”. Also, in data set [1], the “Lipofuscin and pigment content in cultured RPE cells” value is given as “decreased compared to the control”; the “Lipofuscin and melanin in cultured human RPE cells” value is “reduced”. In data set [3], the “ERG a-wave and b-wave amplitudes after injection, compared with vehicle” value is on record as “decrease of the amplitudes is even more pronounced”; the “ERG a-wave and b-wave amplitudes, recovery” value was “remained significantly lower than the base line”. Besides, in data set [4], the “Number of fluorescent lipofuscin particles per 50 μm RPE layer length” value worked out at 15.0±8.3 particles per 50 μm. Besides, in data set [5] (30 μg/ml), the “Pigmented cells bearing degradational clusters” value is 80.1%+/−22.6.
What is called melting point is the temperature of the solid-liquid transition. `CO[C@@H]1c2ccn3c(C)c(C)nc3c2N[C@@H](c2ccccc2)[C@@H]1O` [Example 2B, (7R,8S,9S)-2,3-Dimethyl-8-hydroxy-7-methoxy-9-phenyl-7,8,9,10-tetrahydro-imidazo[1,2-h][1,7]naphthyridine]: the melting point lay within 171 to 172 °C.
Same read-out and setting: the same measure for `CCO[C@H]1c2ccn3c(C)c(C)nc3c2N[C@H](c2ccccc2)[C@H]1O` [Example 4, (7S,8R,9R)-2,3-Dimethyl-7-ethoxy-8-hydroxy-9-phenyl-7,8,9,10-tetrahydro-imidazo[1,2-h][1,7]naphthyridine]: 135 to 137 °C.
Same read-out and setting: for `CO[C@@H]1[C@@H](c2ccccc2)Nc2c(ccn3c(C)c(C)nc23)[C@H]1OC` [Example 8, (7R,8R,9R)-2,3-Dimethyl-7,8-dimethoxy-9-phenyl-7,8,9,10-tetrahydro-imidazo[1,2-h][1,7]naphthyridine] the value was 155 to 156 °C; for `Cc1nc2c3c(ccn2c1C)[C@H](OC(C)C)[C@H](O)[C@@H](c1ccccc1)N3` [Example 7, (7S,8R,9R)-2,3-Dimethyl-8-hydroxy-9-phenyl-7-(2-propoxy)-7,8,9,10-tetrahydro-imidazo[1,2-h][1,7]naphthyridine], 168 to 169 °C; for `CO[C@H]1c2ccn3c(C)c(C)nc3c2N[C@@H](c2ccccc2)[C@@H]1O` [Example 1B, (7S,8S,9S)-2,3-Dimethyl-8-hydroxy-7-methoxy-9-phenyl-7,8,9,10-tetrahydro-imidazo[1,2-h][1,7]naphthyridine], 161 to 162 °C.
For the molecule `CO[C@H]1c2ccn3c(C)c(C)nc3c2N[C@H](c2ccccc2)[C@H]1O` [Example 2A, (7S,8R,9R)-2,3-Dimethyl-8-hydroxy-7-methoxy-9-phenyl-7,8,9,10-tetrahydro-imidazo[1,2-h][1,7]naphthyridine], the melting point lay in the range of 108 to 110 °C.
